Source: patent US12173320B2, “Production of red blood cells and platelets from stem cells” (BOSTON MEDICAL CENTER CORPORATION, priority 2012, dated 2024)
Read-outs that look alike come from different tables or passages of the source. Values belong to the molecule of their own block, whether it stands above or below them.

Tests used:
Assay type in all cases: cell-based, human
[1] = tested on: AhR (CYP1B1 target gene expression) in iPSCs; assay: Quantitative RT-PCR of AhR target gene CYP1B1 in iPSCs
Protocol: RNA was extracted using the RNeasy kit (Qiagen) according to the manufacturer's instructions and DNase treated using the DNA-free kit (Ambion AM1906). Reverse transcription into cDNA was performed using the High Capacity cDNA Reverse Transcription Kit (Applied Biosystems 4368814). Quantitative (real time) PCR amplification of cDNA was performed using Taqman probes for AHR (Hs00169233 ml), CYP1B1 (Hs002382916 sl), HBA (Hs00361191 gl), HBB (Hs00758889 sl), HBG (Hs01629437 sl), vWF (Hs00169795 ml), PF4 (Hs00427220 gl), NF-E2 (Hs00232351 ml) and CD62P (Hs00927900 ml) and run on the Applied Biosystems StepOne machine. […]
To characterize AhR expression and functionality in both undifferentiated iPSCs and directly differentiated MEPs, AhR protein levels were determined via Western blot in these populations. AhR receptor was robustly expressed in day 30 and day 60 MEPs (FIG. 4A). However, AhR protein was not detected by western blotting in iPSC populations, and we postulated that AhR was expressed at extremely low levels in iPSCs, i.e., below the level of detectability with the antibodies used for Western blots. To test this hypothesis, the ability of FICZ to induce a prototypic AhR-target gene, CYPIB1, in iPSCs or, as a positive control, MEPs was assessed by quantitative RT-PCR.

[2] = tested on: AhR (CYP1B1 target gene expression) in MEPs; assay: Quantitative RT-PCR of AhR target gene CYP1B1 in MEPs
Protocol: (§1) 6-formylindolo[3,2-b]carbazole (FICZ), an AHR small molecule agonist, and CH223191, an AHR competitive inhibitor were used for these assays. CH223191 was added to mesoderm cultures at Day 6 at 5 μM (lx) and 2.504 (0.5×). 0.2 μM FICZ was added to cultures at Day 7 and media was added daily. DMSO was used as a vehicle control.
RNA was extracted using the RNeasy kit (Qiagen) according to the manufacturer's instructions and DNase treated using the DNA-free kit (Ambion AM1906). Reverse transcription into cDNA was performed using the High Capacity cDNA Reverse Transcription Kit (Applied Biosystems 4368814). Quantitative (real time) PCR amplification of cDNA was performed using Taqman probes for AHR (Hs00169233 ml), CYP1B1 (Hs002382916 sl), HBA (Hs00361191 gl), HBB (Hs00758889 sl), HBG (Hs01629437 sl), vWF (Hs00169795 ml), PF4 (Hs00427220 gl), NF-E2 (Hs00232351 ml) and CD62P (Hs00927900 ml) and run on the Applied Biosystems StepOne machine. Relative gene expression was normalized to B-actin (Hs99999903 ml).
To characterize AhR expression and functionality in both undifferentiated iPSCs and directly differentiated MEPs, AhR protein levels were determined via Western blot in these populations. […] To test this hypothesis, the ability of FICZ to induce a prototypic AhR-target gene, CYPIB1, in iPSCs or, as a positive control, MEPs was assessed by quantitative RT-PCR.

iPSC-derived MEPs [3] = assay: Immunophenotyping of MEP lineage specification (CD235, CD71, CD41 FACS); details: day 30 MEPs, basal cytokine conditions, versus vehicle
Protocol: (§2) Roughly 10^5 cells were collected, spun, and re-suspended in 0.5% BSA in PBS. Samples were incubated for 30 min at ambient temperature with human antibodies including CD41a-FITC (BD 555466), CD235-PE (BD 555570), CD71-FITC (BD 555536), washed and spun at 3300 rpm for 7 min, and re-suspended in 0.5% BSA in PBS with 1 ug/ml Propidium Iodide. Samples were run on a BD FACScalibur using Cellquest Pro software and analyzed via FloJo 8.7. For ploidy analysis, cells were treated with 1.5% NP-40 (Boston Bioproducts P-872) and 62.5 ug/ml Propidium Iodide in PBS immediately before FACScalibur interrogation. For murine bone marrow, samples were first incubated for 5 min at ambient temperature with murine conjugated antibody CD16/32 (BD 553142) before a 30 min incubation with c-Kit-PE (BD 553355), CD41a-FITC (BD 553848), Ter119-PE (BD 553673). For cell viability assays, 2-3×10 ^5 cells were collected, re-suspended in 8.8 ug/ml Hoecsht 33342 in PBS supplemented with 5% FBS. Samples were then incubated in the dark at 37° C. for 15 min, washed, and re-suspended in 1 ug/ml Propidium Iodide in 5% FBS. Samples were run on an LSR-II machine with FACSDiva software and analyzed via FloJo 8.7.
In our previous studies in which we noted exponential expansion of iPSC-derived MEPs (FIG. 3), the AhR-mediated effect that we noted allowed us to culture cells for extended periods of time (>120 days). […]

iPSC-derived MEPs [4] = assay: Live versus dead cell FACS (propidium iodide vs. Hoechst) of MEPs; details: pre-treated for 24 hours with 5 μM CH223191 before FICZ
Protocol: as §1, §2
In order to determine whether FICZ-mediated transactivation of the AhR receptor was responsible for the exponential expansion of iPSC-derived MEPs, the previously described Hoecsht/Propidium Iodide apoptosis assay was performed using the known AhR inhibitor CH223191. As previously shown in FIG. 3, fewer cells stained with propidium iodide after FICZ treatment (e.g., 15.5% vs. 8.09%) (FIG. 5E). […] The efficacy of the CH223191 was confirmed by its ability to block CY1^31B1 induction as assayed by qRT-PCR (FIG. 5F).

AhR = assay: Lentiviral AhR reporter (MMTV-DRE dsRed / luciferase) in MEPs; details: day 30 MEPs, 0.2 μM FICZ plus 5 μM CH223191
iPSC-derived MEPs [5] = assay: Growth / expansion of MEP cultures (manual counts, trypan blue exclusion)
Protocol: Plots were gated first in FSC vs. SSC and then from that population for PI ‘ and PE Hoechst’. […] (B) Representative phase contrast images of MEP population+FICZ. (C) Growth curve of day 15 MEPs+/−[…] FICZ. Cells were counted manually using trypan blue exclusion. Graphical data and the associated statistics are the result of three independent experiments per group.
High passage iPSCs were plated onto matrigel coated 6-well plates in iPSC media conditioned on iMEFs for 24 hours and supplemented with 2 ng/ml Rho Kinase Inhibitor and 20 ng/ml bFGF. After two days, iPSC media was replaced with Mesoderm DO-1 media: RPMI (Invitrogen A1049101) supplemented with 5 ng/mlhBMP-4 (R&D 314-BP-010), 50 ng/ml hVEGF (R&D 293-VE-010), 25 ng/mlhWnt3a (R&D 287-TC-500) and 10% KOSR. At Day 2, Mesoderm DO-1 media was replaced with Mesoderm D2 media: RPMI supplemented with 5 ng/ml hBMP-4, 50 ng/mlhVEGF, 20 ng/ml bFGF and 10% KOSR. Mesoderm D3 media consisted of the following: StemPro 34 (Invitrogen 10639011), 5 ng/ml hBMP-4, 50 ng/mlhVEGF, and 20 ng/ml bFGF. Mesoderm media for days 4 and 5 consisted of: StemPro 34, 15 ng/mlhVEGF, and 5 ng/ml bFGF. Day 6 mesoderm media: 74% IMDM (Invitrogen 12330061), 24% Hams F12 (Mediatech 10-080-CV), 1% B27 supplement (Invitrogen 12587-010), 0.5% N2-supplement (Invitrogen 17502-048), 0.5% BSA (Sigma A3059), 50 ng/ml hVEGF, 100 ng/mlbFGF, 100 ng/ml hSCF (R&D 255-SC-010), 25 ng/ml hFlt3 Ligand (R&D 308-FKN-005). Day 7 media: 74% IMDM, 24% Hams F12, 1% B27 supplement, 0.5% N2-supplement, 0.5% BSA, 50 ng/ml hVEGF, 100 ng/ml bFGF, 100 ng/ml hSCF, 25 ng/ml hFlt3 Ligand, 50 ng/ml hTPO (Genentech G140BT), 10 ng/ml IL-6 (R&D 206-IL-010), 0.5 U/ml hEPOgen and 0.2 uM 6-formylindolo[3,2-b]carbazole (FICZ) (Santa Cruz SC300019). After Day 7, 0.5 ml of Day 7 media was added to the culture daily without aspirating the media from the previous day. All base media mixes included 2 mM L-Glutamine (Invitrogen 25030081), 4×10^-4M Monothioglycerol (Sigma M1753), 100 ug/ml Primocin, and 50 ug/ml Ascorbic Acid. Cells in suspension were collected and assayed at Days 10-13 or split for long-term culture.
as §1

responsiveness to AhR agonist (CYP1B1 RT-PCR) [1]: responsive
responsiveness to AhR agonist (CYP1B1 RT-PCR) ([2]; MEP, normalized to GAPDH): responsive
SMILES: O=c1cc(-c2ccccc2)oc2ccc3ccccc3c12 [(3-NF, P-naphtoflavone]

DsRed reporter expression (AhR): significant decrease
CYP1B1 induction by FICZ ([2]; MEPs pretreated with CH223191 at D6, FICZ at D7): block
SMILES: Cc1ccccc1N=Nc1ccc(NC(=O)c2ccnn2C)c(C)c1 [CH223191, 2-methyl-2H-pyrazole-3-carboxylic acid (2-methyl-4-o-tolylazo-phenyl)-amide]
CD41+ megakaryocyte-lineage cells (iPSC-derived MEPs [3]): small but defined population
percentage of PI+ cells, vehicle versus FICZ-treated cultures (iPSC-derived MEPs [4]): approximately the same
expansion of MEPs (iPSC-derived MEPs [5]; 2.5 μM CH223191 pre-treatment before addition of FICZ): still capable of expansion
expansion of MEPs (iPSC-derived MEPs [5]; 5 μM CH223191 pre-treatment + FICZ): No significant expansion

SMILES: Clc1cc2c(cc1Cl)Oc1cc(Cl)c(Cl)cc1O2 [TCDD, 2,3,7,8-tetrachlorodibenzo(p)dioxin]
responsiveness to AhR agonist (CYP1B1 RT-PCR) ([1]; iPSC treated for 4 days, normalized to GAPDH): responsive
